Assay results: paper PMC7180572, “5-Alkylamino-N-phenylpyrazine-2-carboxamides: Design, Preparation, and Antimycobacterial Evaluation” (Molecules, 2020)
≈ marks a conversion by molar mass, not a printed value. Where two headings read alike, the source gives them in different places.

Experiments:
[1] = tested on: Mycobacterium tuberculosis H37Ra ITM-M006710 (ATCC 9431); experiment: Microdilution broth, modified Microplate Alamar Blue Assay, whole cell growth inhibition; assay type: cell-based; conditions: Mycobacterium tuberculosis, read-out: MIC Mtb H37Ra
Serratia marcescens = experiment: Antibacterial microdilution broth method (EUCAST); assay type: cell-based; conditions: 48 h, standards, read-out: MIC against Serratia marcescens
[2] = tested on: Mycobacterium smegmatis DSM 43465 (ATCC 607); experiment: Microdilution broth, modified Microplate Alamar Blue Assay, whole cell growth inhibition; assay type: cell-based; conditions: Mycolicibacterium smegmatis, read-out: MIC Mycobacterium smegmatis
[3] = tested on: Mycobacterium aurum DSM 43999 (ATCC 23366); experiment: as above; assay type: cell-based; conditions: Mycolicibacterium aurum, read-out: MIC Mycobacterium aurum
[4] = tested on: M. avium ssp. avium CNCTC My 80/72 (ATCC 15769); experiment: 96 well plate microdilution broth method with Alamar Blue; assay type: cell-based; conditions: Mycobacterium avium
[5] = assay type: physicochemical
Procedure: As a complementary test, final compounds were tested for in vitro activity against selected fungal and bacterial pathogens of clinical importance. The microdilution broth method was performed according to The European Committee on Antimicrobial Susceptibility Testing (EUCAST) instructions with slight modifications. The minimum inhibitory concentration was expressed in µM. Not all compounds were evaluated due to the fact of a problem with solubility which occurred for 18 samples. […] See Supplementary Materials for the list of tested strains, methodology, and full results.

[6] = tested on: M. kansasii CNCTC My 235/80 (ATCC 12478); experiment: 96 well plate microdilution broth method with Alamar Blue; assay type: cell-based; conditions: Mycobacterium kansasii
HepG2 cells = experiment: HepG2 cytotoxicity, CellTiter 96 (MTS) assay; assay type: cell-based, human; conditions: for IC50: Homo sapiens, read-out: HepG2 IC50; for SI, selectivity index: IC50 (HepG2)/MIC against Mtb H37Ra (in µM)
[7] = tested on: Candida albicans ATCC 24433, CCM 8320; experiment: Antifungal microdilution broth method (EUCAST); assay type: cell-based
[8] = tested on: Staphylococcus aureus spp.aureus ATCC 29213, CCM 4223; experiment: Antibacterial microdilution broth method (EUCAST); assay type: cell-based; conditions: read-out: MIC SA
[9] = tested on: Enterococcus faecalis ATCC 29212, CCM 4224; experiment: Antibacterial microdilution broth method (EUCAST); assay type: cell-based; conditions: read-out: MIC EF
[10] = tested on: Trichophyton interdigitale ATCC 9533, CCM 8377; experiment: Antifungal microdilution broth method (EUCAST); assay type: cell-based; conditions: read-out: MIC TI
[11] = tested on: Staphylococcus aureus methicillin resistant ATCC 43300, CCM 4750; experiment: microbe, parasite or virus in culture; assay type: cell-based; conditions: ATCC 43300 / CCM 4750 / MRSA, read-out: MIC MRSA
[12] = tested on: Aspergillus fumigatus ATCC 204305; experiment: Antifungal microdilution broth method (EUCAST); assay type: cell-based; conditions: read-out: MIC AF
[13] = tested on: Acinetobacter baumanii ATCC 19606, DSM 30007; experiment: Antibacterial microdilution broth method (EUCAST); assay type: cell-based; conditions: Acinetobacter baumannii
[14] = tested on: Staphylococcus epidermidis ATCC 12228, CCM 4418; experiment: Antibacterial microdilution broth method (EUCAST); assay type: cell-based; conditions: read-out: MIC SE
[15] = tested on: Aspergillus flavus CCM 8363; experiment: Antifungal microdilution broth method (EUCAST); assay type: cell-based; conditions: read-out: MIC AFla
[16] = tested on: Candida krusei ATCC 6258, CCM 8271; experiment: Antifungal microdilution broth method (EUCAST); assay type: cell-based; conditions: Pichia kudriavzevii
[17] = tested on: Escherichia coli ATCC 25922, CCM 3954; experiment: Antibacterial microdilution broth method (EUCAST); assay type: cell-based; conditions: read-out: MIC EC
[18] = tested on: Candida tropicalis ATCC 750, CCM 8264; experiment: Antifungal microdilution broth method (EUCAST); assay type: cell-based; conditions: read-out: MIC CT
[19] = tested on: Candida parapsilosis ATCC 22019, CCM 8260; experiment: Antifungal microdilution broth method (EUCAST); assay type: cell-based; conditions: Lodderomyces parapsilosis
[20] = tested on: Absidia corymbifera CCM 8077 (Lichtheimia corymbifera); experiment: Antifungal microdilution broth method (EUCAST); assay type: cell-based; conditions: read-out: MIC AC
[21] = tested on: Klebsiella pneumoniae ATCC 10031, CCM 4415; experiment: Antibacterial microdilution broth method (EUCAST)
[22] = tested on: Pseudomonas aeruginosa ATCC 27853, CCM 3955; experiment: Antibacterial microdilution broth method (EUCAST); assay type: cell-based; conditions: read-out: MIC PA
[23] = in vitro, Middlebrook 7H9 broth, resazurin
[24] = ATCC15769, pH 6.6, read-out: MIC Mycobacterium avium
[25] = ATCC12478, pH 6.6, read-out: MIC Mycobacterium kansasii

O=C(O)c1cn(C2CC2)c2cc(N3CCNCC3)c(F)cc2c1=O [CPX, ciprofloxacin, reference compound]
MIC [1, 23]: 0.125 to 0.25 µg/mL | MIC (Serratia marcescens): 0.256 µg/mL (≈ 0.773 µM) | MIC [2, 23]: 0.0625 to 0.125 µg/mL (≈ 0.189 to 0.377 µM) | MIC [3, 23]: 0.0156 to 0.0313 µg/mL (≈ 0.0471 to 0.0945 µM)

CCCCCCCCNc1cnc(C(=O)Nc2ccc(O)cc2)cn1 [Compound 3f, N-(4-hydroxyphenyl)-5-(octylamino)pyrazine-2-carboxamide]
MIC ([4]; ATCC15769, Middlebrook 7H9 broth pH 6.6, read-out: MIC Mycobacterium avium): > 100 µg/mL | Solubility problem in antibacterial/antifungal testing [5]: did not dissolve in DMSO | MIC [1, 23]: 3.13 µg/mL | MIC [2, 23]: ≥ 250 µg/mL | MIC ([6]; ATCC12478, Middlebrook 7H9 broth pH 6.6, read-out: MIC Mycobacterium kansasii): 6.25 µg/mL (≈ 18.3 µM) | melting point: 142 to 143 °C | MIC [3, 23]: ≥ 250 µg/mL | IC50 (HepG2 cells; HepG2, 24 h incubation, > means higher concentration not reproducible due to precipitation): 60.2 µM | SI, selectivity index (HepG2 cells): 6.6

CCCCCCNc1cnc(C(=O)Nc2ccc(C)cc2)cn1 [Compound 4d, 5-(Hexylamino)-N-(p-tolyl)pyrazine-2-carboxamide]
MIC ([7]; 24 h, read-out: MIC CA): > 125 µM | MIC ([7]; 48 h, read-out: MIC CA): > 125 µM | MIC ([7]; read-out: MIC CA (Candida albicans)): > 125 µM | MIC [4, 24]: > 100 µg/mL | MIC ([8]; 24 h): > 500 µM | MIC ([8]; 48 h): > 500 µM | MIC ([9]; 24 h): > 500 µM | MIC ([9]; 48 h): > 500 µM | MIC ([1]; MIC converted to µM): 4.99 µM | MIC [1, 23]: 1.56 µg/mL | MIC ([10]; 72 h): > 125 µM | MIC ([10]; 120 h): > 125 µM | MIC [2]: ≥ 500 µg/mL | MIC ([11]; 24 h): > 500 µM | MIC ([11]; 48 h): > 500 µM | MIC ([12]; ATCC204305, 24 h): > 125 µM | MIC ([12]; ATCC204305, 48 h): > 125 µM | MIC ([13]; 24h): > 500 µM | MIC ([13]; 48h): > 500 µM | MIC ([14]; 24 h): > 500 µM | MIC ([14]; 48 h): > 500 µM | MIC ([15]; CCM8363, 24 h): > 125 µM | MIC ([15]; CCM8363, 48 h): > 125 µM | MIC ([16]; 24 h, read-out: MIC CK): 125 µM (≈ 39.1 µg/mL) | MIC ([16]; 48 h, read-out: MIC CK): 125 µM (≈ 39.1 µg/mL) | MIC ([16]; read-out: MIC CK (Candida krusei)): 125 µM (≈ 39.1 µg/mL) | MIC ([17]; 24 h): > 500 µM | MIC ([17]; 48 h): > 500 µM | MIC [6, 25]: 12.5 µg/mL (≈ 40 µM) | MIC ([18]; 24 h): > 125 µM | MIC ([18]; 48 h): > 125 µM | melting point: 163 to 164 °C | MIC ([19]; 24 h, read-out: MIC CP): 125 µM (≈ 39.1 µg/mL) | MIC ([19]; 48 h, read-out: MIC CP): 125 µM (≈ 39.1 µg/mL) | MIC ([19]; read-out: MIC CP (Candida parapsilosis)): 125 µM (≈ 39.1 µg/mL) | MIC ([20]; CCM8077, 24 h): > 125 µM | MIC ([20]; CCM8077, 48 h): > 125 µM | MIC [3]: ≥ 500 µg/mL | MIC KP ([21]; 24h): > 500 µM | MIC KP ([21]; 48h): > 500 µM | MIC ([22]; 72 h): > 500 µM | MIC ([22]; 120 h): > 500 µM | IC50 (HepG2 cells; HepG2, 24 h): > 50 µM | SI, selectivity index (HepG2 cells): >10.01

CCCCCCCNc1cnc(C(=O)Nc2ccc(C)cc2)cn1 [Compound 4e, 5-(Heptylamino)-N-(p-tolyl)pyrazine-2-carboxamide]
MIC ([7]; 24 h, read-out: MIC CA): > 125 µM | MIC ([7]; 48 h, read-out: MIC CA): > 125 µM | MIC [4, 24]: > 100 µg/mL | MIC ([8]; 24 h): > 500 µM | MIC ([8]; 48 h): > 500 µM | MIC ([9]; 24 h): > 500 µM | MIC ([9]; 48 h): > 500 µM | MIC ([1]; MIC converted to µM): 2.39 µM | MIC [1, 23]: 0.78 µg/mL | MIC ([10]; 72 h): > 125 µM | MIC ([10]; 120 h): > 125 µM | MIC [2]: ≥ 500 µg/mL | MIC ([11]; 24 h): > 500 µM | MIC ([11]; 48 h): > 500 µM | MIC ([12]; ATCC204305, 24 h): > 125 µM | MIC ([12]; ATCC204305, 48 h): > 125 µM | MIC ([13]; 24h): > 500 µM | MIC ([13]; 48h): > 500 µM | MIC ([14]; 24 h): > 500 µM | MIC ([14]; 48 h): > 500 µM | MIC ([15]; CCM8363, 24 h): > 125 µM | MIC ([15]; CCM8363, 48 h): > 125 µM | MIC ([16]; 24 h, read-out: MIC CK): > 125 µM | MIC ([16]; 48 h, read-out: MIC CK): > 125 µM | MIC ([17]; 24 h): > 500 µM | MIC ([17]; 48 h): > 500 µM | MIC [6, 25]: 12.5 µg/mL (≈ 38.3 µM) | MIC ([18]; 24 h): > 125 µM | MIC ([18]; 48 h): > 125 µM | melting point: 157.8 to 158.9 °C | MIC ([19]; 24 h, read-out: MIC CP): > 125 µM | MIC ([19]; 48 h, read-out: MIC CP): > 125 µM | MIC ([20]; CCM8077, 24 h): > 125 µM | MIC ([20]; CCM8077, 48 h): > 125 µM | MIC [3]: ≥ 500 µg/mL | MIC KP ([21]; 24h): > 500 µM | MIC KP ([21]; 48h): > 500 µM | MIC ([22]; 72 h): > 500 µM | MIC ([22]; 120 h): > 500 µM | IC50 (HepG2 cells; HepG2, 24 h): > 50 µM | SI, selectivity index (HepG2 cells): >20.91
